Assay results: patent US5348953A, “Substituted azetidinones as anti-inflammatory and antidegenerative agents” (Merck & Co., Inc., priority 1992, dated 1994)

Target: T1, Human Polymorphonuclear Leukocyte Elastase (Homo sapiens, UniProt P08246)
T1 construct: Crude extract of human polymorphonuclear leukocytes (PMN) containing elastase activity; from tissue; host or cells: human polymorphonuclear leukocytes (crude extract)
T1 sequence (P08246 30-267): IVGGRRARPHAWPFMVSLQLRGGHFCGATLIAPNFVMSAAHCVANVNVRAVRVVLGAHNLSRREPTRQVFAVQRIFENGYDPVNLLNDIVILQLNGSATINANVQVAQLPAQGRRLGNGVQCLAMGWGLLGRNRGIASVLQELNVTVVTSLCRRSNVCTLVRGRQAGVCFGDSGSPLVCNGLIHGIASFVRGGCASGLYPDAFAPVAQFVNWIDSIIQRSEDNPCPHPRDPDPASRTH
Assay: Inhibition of human polymorphonuclear leukocyte elastase via hydrolysis of Boc-AAPAN or Boc-AAPVN
Assay type: biochemical
Conditions: pH 7.5; second order rate constant for inactivation; Formula A, M n-propyl, R2 4-methyl (TABLE 1); read-out: kobs /[I]
Experimental: Enzyme Assays for the Inhibition of Human Polymorphonuclear Leukocyte
Elastase Via Hydrolysis of
N-t-Boc-alanyl-alanyl-prolylalanine-p-nitroanilide (Boc-AAPAN) or
N-t-Boc-alanyl-prolylvaline-p-nitroanilide (Boc-AAPVN) Reagent:
0.05M TES (N-tris[hydroxymethyl]methyl-2-amino-ethanesulfonic acid) Buffer, pH 7.5.
0.2 mM Boc-AAPAN or Boc-AAPVN.
To prepare substrate, the solid was first dissolved in 10.0 ml DMSO. Buffer at pH 7.5 was then added to a final volume of 100 ml.
Crude extract of human polymorphonuclear leukocytes (PMN) containing elastase activity.
Inhibitors (azetidinones) to be tested dissolved in DMSO just before use.
To 1.0 ml of 0.2 mM Boc-AAPAN in a cuvette, 0.01-0.1 ml of DMSO with or without inhibitor was added. After mixing, a measurement was taken at 410 mμ to detect any spontaneous hydrolysis due to presence of test compound. 0.05 Milliliters of PMN extract was then added and the ΔOD/min at 410 mμ was measured and recorded. Beckman model 35 spectrophotometer was used.
Results in Table I were reported as ID50, effective dosage in micrograms per milliliter (μg/ml) for 50% inhibition of the enzyme activity 2 minutes after zero time.
Results were also expressed as Ki, the micromolar concentration of the inhibitor (μM) giving 50% of the control enzyme activity; or as ^k obs/I which is the second order rate constant in per mole per second for inactivation of the enzyme.
The elastase activity in the crude PMN extract may vary from one preparation to another. A control of each new batch is run, and the volume added in the assay procedure is adjusted according to activity.

SMILES | kinact/KI
CCC[C@@H](NC(=O)N1C(=O)C(CC)(CC)[C@@H]1OCC(=O)N(CC)CCN(CCOCC)C(C)C)c1ccc(C)cc1 | 195000 M⁻¹ s⁻¹
CCC[C@@H](NC(=O)N1C(=O)C(CC)(CC)[C@@H]1OCC(=O)N1CCOCC1)c1ccc(C)cc1 | 400000 M⁻¹ s⁻¹
CCC[C@@H](NC(=O)N1C(=O)C(CC)(CC)[C@@H]1OCC(=O)N(C)CCN1C(C)CCCC1C)c1ccc(C)cc1 (stereo partly drawn) [2-(S)-[2-[[2-(2,6-dimethylpiperidin-1-yl)ethyl]-methylamino]-2-oxoethoxy]-3,3-diethyl-N-[1-(R)-(4-methylphenyl)butyl] -4-oxo-1-azetidinecarboxamide] | 80000 M⁻¹ s⁻¹
CCC[C@@H](NC(=O)N1C(=O)C(CC)(CC)[C@@H]1OCC(=O)N(C)CCN(CCOCC)C(C)C)c1ccc(C)cc1 [2-(S)-[2-[[2-((2-Ethoxyethyl)-isopropylamino)ethyl]methylamino]-2-oxoethoxy]-3,3-diethyl-N-[1-(R)-(4-methylphenyl)butyl]-4-oxo-1-azetidinecarboxamide] | 140000 M⁻¹ s⁻¹
CCC[C@@H](NC(=O)N1C(=O)C(CC)(CC)[C@@H]1OCC(=O)N(CCC)CCN(CCOCC)C(C)C)c1ccc(C)cc1 [2-(S)-[2-[[2-((2-Ethoxyethyl)-isopropylamino)ethyl]propylamino]-2-oxoethoxy]-3,3-diethyl-N-[1-(R)-(4-methylphenyl)butyl]-4-oxo-1-azetidinecarboxamide] | 185000 M⁻¹ s⁻¹
CCC[C@@H](NC(=O)N1C(=O)C(CC)(CC)[C@@H]1OCC(=O)N(CCN(CC)CCOC)C(C)C)c1ccc(C)cc1 [2-(S)-[2-[[2-((2-Methoxyethyl)-ethylamino)ethyl]-isopropylamino]-2-oxoethoxy]-3,3-diethyl-N-[1-(R)-(4-methylphenyl)butyl]-4-oxo-1-azetidinecarboxamide] | 250000 M⁻¹ s⁻¹
CCC[C@@H](NC(=O)N1C(=O)C(CC)(CC)[C@@H]1OCC(=O)N(CC)CCN(CC)CCOC)c1ccc(C)cc1 [2-(S)-[2-[[2-((2-Methoxyethyl)-ethylamino)ethyl]ethylamino]-2-oxoethoxy]-3,3-diethyl-N-[1-(R)-(4-methylphenyl)butyl]-4-oxo-1-azetidinecarboxamide] | 185000 M⁻¹ s⁻¹
CCC[C@@H](NC(=O)N1C(=O)C(CC)(CC)[C@@H]1OCC(=O)N(C)CCN(CC)CCOC)c1ccc(C)cc1 [2-(S)-[2-[[2-((2-Methoxyethyl)-ethylamino)ethyl]methylamino]-2-oxoethoxy]-3,3-diethyl-N-[1-(R)-(4-methylphenyl)butyl]-4-oxo-1-azetidinecarboxamide] | 110000 M⁻¹ s⁻¹
CCC[C@@H](NC(=O)N1C(=O)C(CC)(CC)[C@@H]1OCC(=O)N(C)CCN(CCOC)CCOC)c1ccc(C)cc1 [2-(S)-[2-[[2-(Di-(2-methoxyethyl)amino)ethyl]methylamino]-2-oxoethoxy]-3,3-diethyl-N-[1-(R)-(4-methylphenyl)butyl]-4-oxo-1-azetidinecarboxamide] | 165000 M⁻¹ s⁻¹
CCC[C@@H](NC(=O)N1C(=O)C(CC)(CC)[C@@H]1OCC(=O)N(CC)CCN1CCOCC1)c1ccc(C)cc1 [2-(S)-[2-[[2-(Morpholin-1-yl)ethyl]ethylamino]-2oxoethoxy]-3,3-diethyl-N-[1-(R)-(4-methylphenyl)butyl]-4-oxo-1-azetidinecarboxamide] | 245000 M⁻¹ s⁻¹

More lines, now with the values ahead:

kinact/KI | SMILES
177000 M⁻¹ s⁻¹ | CCC[C@@H](NC(=O)N1C(=O)C(CC)(CC)[C@@H]1OCC(=O)N(CC)CCN(CC)CC)c1ccc(C)cc1 [Y=N(Et)CH2 CH2; R5=H; R7=Et; R8=Et, 2-(S)-[2-[[2-(Diethylamino)ethyl]ethylamino]-2-oxoethoxy]-3,3-di ethyl-N-[1-(R)-(4-methylphenyl)butyl]-4-oxo-1-azetidinecarboxamide]
189000 M⁻¹ s⁻¹ | CCC[C@@H](NC(=O)N1C(=O)C(CC)(CC)[C@@H]1OCC(=O)N(CC)CCN(C(C)C)C(C)C)c1ccc(C)cc1 [Y=N(Et)CH2 CH2; R5=H; R7=iPr; R8=iPr, 2-(S)-[2-[[2-(Diisopropylamino)ethyl]ethylamino]-2-oxoethoxy]-3,3-diethyl-N-[1-(R)-(4-methylphenyl)butyl]-4-oxo-1-azetidinecarboxamide]
1.77e+06 M⁻¹ s⁻¹ | CCC[C@@H](NC(=O)N1C(=O)C(CC)(CC)[C@@H]1O[C@@H](C)C(=O)N(CC)CCN(C)C)c1ccc(C)cc1 [Y=N(Et)CH2 CH2; R5=Me; R7=Me; R8=Me, 2-(S)-[2-[[2-(Dimethylamino)ethyl]ethylamino]-2-oxo-(1-(S)-methyl)ethoxy]-3,3-diethyl-N-[1-(R)-(4-methylphenyl)butyl]-4-oxo-1-azetidinecarboxamide]
115000 M⁻¹ s⁻¹ | CCC[C@@H](NC(=O)N1C(=O)C(CC)(CC)[C@@H]1OCC(=O)N(C)CCCN(C)C)c1ccc(C)cc1 [Y=N(Me)CH2 CH2 CH2; R5=H; R7=Me; R8=Me, 2-(S)-[2-[[3-(Dimethylamino)propyl]methylamino]-2-oxoethoxy]-3,3-diethyl-N-[1-(R)-(4-methylphenyl)butyl]-4-oxo-1-azetidinecarboxamide]
150000 M⁻¹ s⁻¹ | CCC[C@@H](NC(=O)N1C(=O)C(CC)(CC)[C@@H]1OCC(=O)N(C)CCN(CC)CC)c1ccc(C)cc1 [Y=N(Me)CH2 CH2; R5=H; R7=Et; R8=Et, 2-(S)-[2-[[2-(Diethylamino)ethyl]methylamino]-2oxoethoxy]-3,3-diethyl-N-[1-(R)-(4-methylphenyl)butyl]-4-oxo-1-azetidinecarboxamide]
114000 M⁻¹ s⁻¹ | CCC[C@@H](NC(=O)N1C(=O)C(CC)(CC)[C@@H]1OCC(=O)N(C)CCN(C)C)c1ccc(C)cc1 [Y=N(Me)CH2 CH2; R5=H; R7=Me; R8=Me, 2-(S)-[2-[[2-(Dimethylamino)ethyl]methylamino]-2-oxoethoxy]-3,3-diethyl-N-[1-(R)-(4-methylphenyl)butyl]-4-oxo-1-azetidinecarboxamide]

Same assay, conditions: pH 7.5; second order rate constant; Formula A, M n-propyl, R2 3,4-methylenedioxy; read-out: kobs /[I]

kinact/KI | SMILES
450000 M⁻¹ s⁻¹ | CCC[C@@H](NC(=O)N1C(=O)C(CC)(CC)[C@@H]1OCC(=O)N(CC)CCN(C)CCOC)c1ccc2c(c1)OCO2 [2-(S)-[2-[[2-(2-Methoxyethyl)methylamino)ethy]ethylamino]-2-oxoethoxy]-3,3-diethyl-N-[1-(R)-(3,4-methylenedioxyphenyl)butyl]-4-oxo-1-azetidine carboxamide]
425000 M⁻¹ s⁻¹ | CCC[C@@H](NC(=O)N1C(=O)C(CC)(CC)[C@@H]1OCC(=O)N(CC)CCN(C)C)c1ccc2c(c1)OCO2 [2-(S)-[2-[[2-(Dimethylamino)ethy]-ethylamino]-2-oxoethoxy]-3,3-diethyl-N-[1-(R)-(3,4-methylenedioxyphenyl)butyl]-4-oxo-1-azetidinecarboxamide]
500000 M⁻¹ s⁻¹ | CCC[C@@H](NC(=O)N1C(=O)C(CC)(CC)[C@@H]1OCC(=O)N(CCN(C)C)C(C)C)c1ccc2c(c1)OCO2 [2-(S)-[2-[[2-(Dimethylamino)ethyl]-isopropylamino]-2-oxoethoxyl]-3,-3-diethyl-N-[1-(R)-(3,4-methylenedioxyphenyl)-butyl]-4-oxo-1-azetidinecarboxamide]

Same assay, conditions: pH 7.5; second order rate constant; Formula A, M n-propyl, R4 piperazine amide with substituent Z; read-out: kobs /[I]

SMILES | kinact/KI
CCC[C@@H](NC(=O)N1C(=O)C(CC)(CC)[C@@H]1OCC(=O)N1CCN(C2CC2)CC1)c1ccc2c(c1)OCO2 [2-(S)-[2-[2-(4-Cyclopropyl)piperazin-1-yl]-2-oxoethoxy]-3,3-diethyl-N-[1-(R)-(3,4-methylenedioxyphenyl)-butyl]-4-oxo-1-azetidinecarboxamide] | 560000 M⁻¹ s⁻¹
CCC[C@@H](NC(=O)N1C(=O)C(CC)(CC)[C@@H]1OCC(=O)N1CCN(C)CC1)c1ccc2c(c1)OCO2 [R2=3,4-methylenedioxy-; R5=H; Z=--Me, 2-(S)-[2-[2-(4-Methyl)piperazin-1-yl]-2-oxoethoxy]-3,-3-diethyl-N-[1-(R)-(3,4-methylenedioxyphenyl)-butyl]-4-oxo-1-azetidinecarboxamide] | 530000 M⁻¹ s⁻¹
CCC[C@@H](NC(=O)N1C(=O)C(CC)(CC)[C@@H]1OCC(=O)N1CCNCC1)c1ccc2c(c1)OCO2 [R2=3,4-methylenedioxy-; R5=H; Z=H] | 515000 M⁻¹ s⁻¹

Continued, values first:

kinact/KI | SMILES
300000 M⁻¹ s⁻¹ | CCC[C@@H](NC(=O)N1C(=O)C(CC)(CC)[C@@H]1OCC(=O)N1CCN(CCO)CC1)c1ccc(C)cc1 [R2=4-Me; R5=H; Z=CH2 CH2 OH, 2-(S)-[2-[2-(4-(2-Hydroxy)ethyl)piperazin-1-yl]-2-oxoethoxy]-3,-3-diethyl-N[1-(R)-(4-methylphenyl)-butyl]-4-oxo-1-azetidinecarboxamide]
250000 M⁻¹ s⁻¹ | CCC[C@@H](NC(=O)N1C(=O)C(CC)(CC)[C@@H]1OCC(=O)N1CCNCC1)c1ccc(C)cc1 [R2=4-Me; R5=H; Z=H]
225000 M⁻¹ s⁻¹ | CCC[C@@H](NC(=O)N1C(=O)C(CC)(CC)[C@@H]1OCC(=O)N1CCN(C2CC2)CC1)c1ccc(C)cc1 [R2=4-Me; R5=H; Z=cyclopropyl, 2-(S)-[2-[2-(4-Cyclopropyl)piperazin-1-yl]-2-oxoethoxy]-3,-3-diethyl-N-[1-(R)-(4-methylphenyl)-butyl]-4-oxo-1-azetidinecarboxamide]
